Consider 2 compounds from patent US11872311B2, “Metal bisphosphonate nanoparticles for anti-cancer therapy and imaging and for treating bone disorders” (The University of North Carolina at Chapel Hill, priority 2011, dated 2024).

Common to all, as to assay type: cell-based
For experiment [1], the system named is NCI-H460 large lung cancer cells. Description: Cancer cell growth inhibition assay, trypan blue exclusion (Ca-Pam particles). Conditions: Homo sapiens, 48 h, pamidronate concentrations. An excerpt: NCI-H460 large lung cancer cells (American Type Culture Collection (ATCC)# HTB-177) were purchased from the Tissue Culture Facility of Lineberger Comprehensive Cancer Center at the University of North Carolina at Chapel Hill. The cell line was maintained as a suspension in RPMI-1640 growth medium (Cellgro®, Mediatech, Inc., Manassas, Virginia., United States of America) supplemented with 10% fetal bovine serum (Sigma, St. Louis, Missouri., United States of America) and 2% penicillin-streptomycin (Sigma, St. Louis, Missouri., United States of America).
Confluent H460 cells were counted from the culture flask using a hematocytometer. Cells were plated in 6-well plates at a cell density of 5×10^4 cells/well in 3 mL RPMI-1640 complete growth medium. The cells were incubated at 37° C. and 5% CO2 overnight. Pamidronate, and particle dispersions of Ca-Pam, lipid coated Ca-Pam, and AA-lipid coated Ca-Pam (80 μM) in RPMI-1640 media and additional media were added to wells, resulting in pamidronate concentrations (μM) of 0, 5, 10, 20, 40, and 80. Cells were incubated (37° C., 5% CO2) with free pamidronate or particle for 48 h. Viability was determined by the trypan blue exclusion assay.

For experiment [2] the test system is unchanged. The experiment can be described thus: Cell viability, trypan blue exclusion (Mn-Zol particles). Conditions: Homo sapiens, 48 h, zoledronate concentrations. An excerpt:
(§1) NCI-H460 large lung cancer cells (ATCC # HTB-177) and MCF-7 human breast cancer cells (ATCC # HTB-22) were purchased from the Tissue Culture Facility of Lineberger Comprehensive Cancer Center at the University of North Carolina at Chapel Hill. The cell line was maintained as a suspension in RPMI-1640 growth medium (Cellgro®, Mediatech, Inc., Manassas, Virginia., United States of America) supplemented with 10% fetal bovine serum (Sigma, St. Louis, Missouri., United States of America) and 2% penicillin-streptomycin (Sigma, St. Louis, Missouri, United States of America).
Confluent H460 cells were counted from the culture flask using a hematocytometer. Cells were plated in 6-well plates at a cell density of 5×10^4 cells/well in 3 mL RPMI-1640 complete growth medium. The cells were incubated at 37° C. and 5% CO2 overnight. Zoledronate, bare liposome, and particle dispersions of Mn-Zol and lipid coated Mn-Zol (20 μM) in RPMI-1640 media and additional media were added to wells, resulting in zoledronate concentrations (μM) of 0, 1.0, 2.5, 5, 10, and 20. Cells were incubated (37° C., 5% CO2) with free zoledronate, liposome, or particle for 48 h. Viability was determined by the trypan blue exclusion assay.

For the next experiment, the system named is ASPC-1. The experiment can be described thus: Cytotoxicity assay against ASPC-1 (FIG. 35A). The settings on record: Homo sapiens, ASPC1. An excerpt: (§2) FIGS. 35A and 35B present data from cytotoxicity assays of Mn-Zol@DOPA, PEG-A-Zn-Zol, and AA-PEG-A-Mn-Zol particles against ASPC-1 (FIG. 35A) and MCF-7 cells (FIG. 35B).
The subject of experiment [3] is human PC-3 prostate adenocarcinoma cells. Description: Cell viability assay in PC-3 cells (A-Ca-Zol particles). As to the method: In addition, a cell viability assay was also performed in a similar manner, but using human PC-3 prostate adenocarcinoma cells. Cell viability results for PC-3 cells treated with either zoledronate or as synthesized A-Ca-Zol nanoparticles are provided in FIG. 24. The IC50's are estimated to be 3.1, and 0.8 for zoledronate and as-synthesized A-Ca-Zol, respectively.

The test system of another experiment is MCF-7 cells. Description: Cytotoxicity assay against MCF-7 cells (FIG. 35B). Conditions: Homo sapiens, MCF7.
Description: as §2

Experiment [4] deals with MCF-7 human breast cancer cells. Description: Cell viability, trypan blue exclusion (A-Mn-Zol particles). The settings on record: MCF7, MCF-7 cells, 48 h, zoledronate concentrations.
Description: as §1
Confluent MCF-7 cells were trypsinized (trypsin-EDTA, Sigma, St. Louis, Missouri, United States of America) and cell density was obtained from a hemocytometer. 6-well plates were seeded with 5.0×10^4 cells/well and a total of 3 mL media. The plates were incubated at 37° C. and 5% CO2 overnight. Amounts of zoledronate, liposomes, and particle dispersions in RPMI-1640 medium and additional media (5% phosphate buffered saline, Cellgro®, Mediatech, Inc., Manassas, Virginia., United States of America) were added to wells resulting in zoledronate concentrations of 0, 2.5, 5, 10, 20, and 40 μM. The plates were incubated at 37° C. and 5% CO2 for 48 h and viability was determined via the trypan blue exclusion assay. […]

Experiment [5] deals with H460 human lung carcinoma cells. The experiment can be described thus: Cell viability assay, trypan blue cell counts (A-Ca-Zol particles). Conditions: NCI-H460, 48 hrs. As to the method: Four cell culturing plates were set-up for cell viability assays. In each well, 100,000 H460 human lung carcinoma cells were placed in each well with 3 mL of RPMI media (supplemented with 10% FBS and 2% PenStrep) and were allowed to incubate overnight for cell adhesion at 37° C. at 5% CO2.
20 μM stock solutions of zolendrate, bare particle (i.e., as synthesized A-Ca-Zol), RGD targeted particle and anisamide targeted particle were prepared so that treatment curves of 0 μM, 1 μM, 5 μM, 10 μM, 20 μM and […] were established in RPMI media. After individual treatment, the plates were placed back in the incubator for 48 hrs.
After incubation, media and treatment was removed from each well and cells were washed 2× with 1 mL of PBS. 1 mL of trypsin was added to each well and placed back in the incubator for 3 min. The cells and trypsin were then transferred to centrifuge tubes and centrifuged for 3 min and the cell pellet was then redistributed in 1 mL of media. Cell counts were taken using 20 μL of cells and 20 μL trypan blue on a hemocytometer.

Some results are limits rather than exact numbers.

Turning to `NCCC(O)(P(=O)(O)O)P(=O)(O)O` [pamidronate], in experiment [1], the IC50 (as a rule, the concentration at which inhibition is half-maximal) turned out to be 65 µM.

With `O=P(O)(O)C(O)(Cn1ccnc1)P(=O)(O)O` [zoledronate], the IC50 is over 20 µM in experiment [2]; over 60 µM in the experiment on ASPC-1; 3.1 µM in experiment [3]; over 60 µM with MCF-7 cells; 9 µM in experiment [4]; over 20 µM in experiment [5].
